Where a name gives a salt, the structure may show the parent alone.

The conditions of data set [1]: as described in WO 05/025566; cited from earlier work.
Data set [2] is described as follows: Solubility in dissolution media / solvents. To be noted: 0.01 M HCl or simulated gastric juice (pH=1.2). The class given is physicochemical. As to the method: WO 05/025566 is directed to irbesartan-containing oral pharmaceutical formulations having improved dissolution profiles, and especially dissolution of 80% or more 15 minutes after dosing and of 90% or more 30 minutes after dosing.

As to `CCCCC1=NC2(CCCC2)C(=O)N1Cc1ccc(-c2ccccc2-c2nnn[nH]2)cc1` [irbesartan, 2-Butyl-3-[[2′-(1H-tetrazol-5-yl) [1,1′-biphenyl]-4-yl]methyl]-1,3-diazaspiro[4,4]-non-1-en-4-one], in data set [1], the “Solubility in alcohol and CH2Cl2” value is given as “slightly soluble”; the Solubility in water result is “insoluble”.

In the case of `CCCCC1=NC2(CCCC2)C(=O)N1Cc1ccc(-c2ccccc2-c2nnn[nH]2)cc1` [irbesartan-HCl, irbesartan hydrochloride], the “Solubility as compared to the free irbesartan” value in data set [2] is on record as “higher”.

The record behind these values is US20110045097A1, “SOLID PHARMACEUTICAL COMPOSITION COMPRISING IRBESARTAN” (KRKA, d.d. Novo mesto, priority 2006, published 2011).
